One may read the residual activity as the activity still measured, relative to the control. Low readings indicate little activity left, high ones much activity left. Broadly, the inhibition is the change of the read-out against control, counted positive when it falls.

The source made the active and inactive calls. No cut-off for these calls is given here.

Assay [1] concerns the target Platelet-derived growth factor receptor alpha (Homo sapiens) (UniProt P16234). Briefly: Inhibition of PDGFRA (unknown origin) at 1 uM by Ambit Kinomescan binding assay relative to control; values are per cent of control.
Assay [2] deals with Tyrosine-protein kinase ABL2 (Homo sapiens, UniProt P42684). In words: Inhibition of ARG ACT labeling site in human A-375 cells at 0.05 uM by KiNativ Profiling analysis relative to control. Type of assay: cell-based.
Assay [3] deals with Atypical kinase COQ8A, mitochondrial (Homo sapiens) (UniProt Q8NI60). In words: Inhibition of ADCK3 (unknown origin) at 10 uM by Ambit Kinomescan binding assay.
Assay [4] addresses Ribosomal protein S6 kinase alpha-3 (Homo sapiens) (UniProt P51812). In words: Inhibition of RSK2 Domain 2 K2 labeling site harbouring DLKPSNILYVDESGNPESIR in human Huh-7 cells at 1 uM by KiNativ Profiling analysis relative to control. Type of assay: cell-based.
The target of assay [5] is T1, Interleukin-1 receptor-associated kinase 4 (Homo sapiens) (UniProt Q9NWZ3).
T1 sequence (whole entry): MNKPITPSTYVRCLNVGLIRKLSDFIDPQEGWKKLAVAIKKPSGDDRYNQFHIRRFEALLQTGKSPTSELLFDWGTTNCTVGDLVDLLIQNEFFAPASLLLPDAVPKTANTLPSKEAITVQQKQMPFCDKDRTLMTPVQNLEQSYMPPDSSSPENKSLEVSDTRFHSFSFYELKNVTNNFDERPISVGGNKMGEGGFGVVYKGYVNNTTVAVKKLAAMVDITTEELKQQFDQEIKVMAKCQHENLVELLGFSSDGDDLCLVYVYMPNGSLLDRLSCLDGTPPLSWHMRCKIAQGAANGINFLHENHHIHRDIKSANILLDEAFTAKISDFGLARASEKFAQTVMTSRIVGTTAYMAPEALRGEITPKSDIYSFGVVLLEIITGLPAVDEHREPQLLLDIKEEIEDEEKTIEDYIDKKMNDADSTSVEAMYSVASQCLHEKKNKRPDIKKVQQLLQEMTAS
In words: Inhibition of IRAK4 Lys2 labeling site in human Huh-7 cells at 1 uM by KiNativ Profiling analysis relative to control. The assay is classed as cell-based.

Atypical kinase COQ8A, mitochondrial (Homo sapiens), sequence (Q8NI60 163-647 limits assumed): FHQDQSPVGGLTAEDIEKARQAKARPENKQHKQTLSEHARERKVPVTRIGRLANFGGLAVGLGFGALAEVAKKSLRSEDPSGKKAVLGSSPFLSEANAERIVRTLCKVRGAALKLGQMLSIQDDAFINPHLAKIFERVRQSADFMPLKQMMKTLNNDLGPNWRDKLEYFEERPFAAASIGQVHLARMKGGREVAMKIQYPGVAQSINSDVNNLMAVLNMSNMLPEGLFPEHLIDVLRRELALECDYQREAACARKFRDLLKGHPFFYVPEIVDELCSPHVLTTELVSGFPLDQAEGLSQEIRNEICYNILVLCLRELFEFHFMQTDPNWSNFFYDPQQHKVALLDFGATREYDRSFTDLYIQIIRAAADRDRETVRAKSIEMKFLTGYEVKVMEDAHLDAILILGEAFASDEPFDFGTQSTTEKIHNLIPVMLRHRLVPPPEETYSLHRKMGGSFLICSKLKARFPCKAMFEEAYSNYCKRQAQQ
Platelet-derived growth factor receptor alpha (Homo sapiens), sequence (P16234 whole entry): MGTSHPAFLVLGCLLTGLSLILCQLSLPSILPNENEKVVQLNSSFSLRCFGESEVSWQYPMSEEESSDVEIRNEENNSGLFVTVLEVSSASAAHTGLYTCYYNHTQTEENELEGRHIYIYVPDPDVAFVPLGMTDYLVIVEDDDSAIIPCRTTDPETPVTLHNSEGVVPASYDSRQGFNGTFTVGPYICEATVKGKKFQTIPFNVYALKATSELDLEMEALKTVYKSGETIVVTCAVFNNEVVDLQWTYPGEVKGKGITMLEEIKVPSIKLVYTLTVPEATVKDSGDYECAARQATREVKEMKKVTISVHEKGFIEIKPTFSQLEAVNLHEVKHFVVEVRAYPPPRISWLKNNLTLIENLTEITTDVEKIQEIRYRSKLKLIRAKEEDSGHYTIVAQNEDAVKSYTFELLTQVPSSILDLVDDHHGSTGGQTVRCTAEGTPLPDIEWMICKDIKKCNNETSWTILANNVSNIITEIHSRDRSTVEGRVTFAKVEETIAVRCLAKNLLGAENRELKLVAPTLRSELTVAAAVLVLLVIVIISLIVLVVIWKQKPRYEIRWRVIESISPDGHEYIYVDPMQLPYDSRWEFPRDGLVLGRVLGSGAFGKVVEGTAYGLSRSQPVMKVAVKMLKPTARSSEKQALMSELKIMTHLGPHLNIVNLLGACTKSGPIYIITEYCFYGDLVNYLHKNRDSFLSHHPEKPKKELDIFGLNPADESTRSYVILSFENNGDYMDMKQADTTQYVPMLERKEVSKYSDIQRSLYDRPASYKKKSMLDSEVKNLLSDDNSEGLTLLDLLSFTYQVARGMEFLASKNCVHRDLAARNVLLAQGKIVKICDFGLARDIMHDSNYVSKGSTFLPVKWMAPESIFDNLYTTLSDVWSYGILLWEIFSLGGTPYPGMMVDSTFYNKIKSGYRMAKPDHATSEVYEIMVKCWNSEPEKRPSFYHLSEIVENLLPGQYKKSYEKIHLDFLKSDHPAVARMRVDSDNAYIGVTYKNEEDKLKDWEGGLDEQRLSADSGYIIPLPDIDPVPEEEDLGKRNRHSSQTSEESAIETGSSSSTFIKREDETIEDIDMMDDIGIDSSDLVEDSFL
Tyrosine-protein kinase ABL2, sequence (P42684 whole entry): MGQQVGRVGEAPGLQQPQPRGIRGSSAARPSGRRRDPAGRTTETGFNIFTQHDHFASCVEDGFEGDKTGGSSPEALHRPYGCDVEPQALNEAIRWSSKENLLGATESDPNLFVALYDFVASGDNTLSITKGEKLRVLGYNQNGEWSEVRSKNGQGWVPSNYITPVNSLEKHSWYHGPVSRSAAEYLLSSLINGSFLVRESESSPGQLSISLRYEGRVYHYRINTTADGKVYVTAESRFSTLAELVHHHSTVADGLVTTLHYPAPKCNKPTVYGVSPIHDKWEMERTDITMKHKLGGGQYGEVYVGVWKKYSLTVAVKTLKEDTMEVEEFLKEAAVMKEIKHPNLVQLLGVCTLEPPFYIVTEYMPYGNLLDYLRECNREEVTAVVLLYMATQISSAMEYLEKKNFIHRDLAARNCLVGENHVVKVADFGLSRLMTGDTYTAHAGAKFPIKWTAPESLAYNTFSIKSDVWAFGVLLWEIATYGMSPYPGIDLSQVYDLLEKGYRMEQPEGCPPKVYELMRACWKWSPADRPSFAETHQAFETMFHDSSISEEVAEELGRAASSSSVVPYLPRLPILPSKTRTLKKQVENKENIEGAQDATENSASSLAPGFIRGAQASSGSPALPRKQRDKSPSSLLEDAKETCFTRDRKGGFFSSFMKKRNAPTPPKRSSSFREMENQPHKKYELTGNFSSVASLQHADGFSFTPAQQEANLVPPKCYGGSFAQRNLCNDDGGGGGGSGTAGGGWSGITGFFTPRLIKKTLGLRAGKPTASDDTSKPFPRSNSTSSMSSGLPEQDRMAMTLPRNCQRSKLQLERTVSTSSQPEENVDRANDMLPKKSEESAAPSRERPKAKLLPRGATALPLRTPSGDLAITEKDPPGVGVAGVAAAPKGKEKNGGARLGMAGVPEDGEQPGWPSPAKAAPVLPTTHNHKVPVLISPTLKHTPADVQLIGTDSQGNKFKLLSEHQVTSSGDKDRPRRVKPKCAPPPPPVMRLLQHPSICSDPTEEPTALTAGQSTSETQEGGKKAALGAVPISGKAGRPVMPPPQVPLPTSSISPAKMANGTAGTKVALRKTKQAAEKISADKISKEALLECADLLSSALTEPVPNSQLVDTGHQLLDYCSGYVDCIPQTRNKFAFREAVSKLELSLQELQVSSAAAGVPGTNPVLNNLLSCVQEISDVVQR
Ribosomal protein S6 kinase alpha-3 (Homo sapiens), sequence (P51812 whole entry, the tested form may be a part): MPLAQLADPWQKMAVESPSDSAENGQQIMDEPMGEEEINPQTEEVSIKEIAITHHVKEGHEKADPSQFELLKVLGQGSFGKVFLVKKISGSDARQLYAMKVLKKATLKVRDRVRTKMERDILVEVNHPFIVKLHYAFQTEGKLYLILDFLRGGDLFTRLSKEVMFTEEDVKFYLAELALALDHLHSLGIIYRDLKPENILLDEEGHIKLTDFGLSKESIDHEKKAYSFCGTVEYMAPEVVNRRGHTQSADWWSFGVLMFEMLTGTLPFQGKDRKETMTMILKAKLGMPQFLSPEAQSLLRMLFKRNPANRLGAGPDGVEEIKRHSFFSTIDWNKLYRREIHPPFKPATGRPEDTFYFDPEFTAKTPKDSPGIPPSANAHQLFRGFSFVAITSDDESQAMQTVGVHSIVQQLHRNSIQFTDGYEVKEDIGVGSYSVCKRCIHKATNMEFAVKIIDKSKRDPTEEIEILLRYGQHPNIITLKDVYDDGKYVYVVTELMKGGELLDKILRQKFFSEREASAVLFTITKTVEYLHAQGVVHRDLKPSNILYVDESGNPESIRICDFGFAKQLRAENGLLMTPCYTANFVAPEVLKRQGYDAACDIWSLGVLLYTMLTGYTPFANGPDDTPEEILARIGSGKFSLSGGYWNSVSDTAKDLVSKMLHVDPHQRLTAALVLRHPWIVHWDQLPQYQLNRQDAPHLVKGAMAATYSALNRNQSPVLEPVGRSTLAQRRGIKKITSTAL

In turn, `CCN1CCN(Cc2ccc(NC(=O)c3ccc(C)c(/C=C/c4cnc5[nH]ccc5c4OC)c3)cc2C(F)(F)F)CC1` gave a residual activity in assay [1] of 2.6%. Regarding `CCN1CCN(Cc2ccc(NC(=O)c3ccc(C)c(Oc4ccnc5[nH]ccc45)c3)cc2C(F)(F)F)CC1`, the inhibition was determined as 88.5% in assay [2] and 11.5% in assay [4]. For the same compound, the inhibition result in assay [3] is “inactive”.

The compound `CNc1cc(Oc2cc(C(=O)Nc3cc(N4CCN(C)CC4)cc(C(F)(F)F)c3)ccc2C)ncn1` gave an inhibition in assay [5] of 0.4%.
